pIC50: −log10 of the molar value.
Test system: P. aeruginosa ATCC 27853 inner membrane potential
Experiment: DiOC2 (3) membrane polarization assay
Format: cell-based, Pseudomonas aeruginosa
Conditions: Pseudomonas aeruginosa, ATCC27853; read-out: IC50 (DiOC2 (3) membrane polarization, Figure 4A)
Method: RND efflux pumps couple the influx of protons from the proton gradient across the inner membrane to the efflux of drugs and other molecules. […] The effect of TXA09155 on the proton gradient of P. aeruginosa was assessed with a fluorescence-based 3,3′-diethyloxacarbocyanine iodide [DiOC2 (3)] assay that was developed to measure membrane potential changes in Gram-negative bacteria. DiOC2 (3) is a positively charged fluorescent dye that accumulates within cells in a charge-dependent manner, shifting its fluorescence spectrum from green to red at high concentrations due to concentration-dependent dye stacking. […] Azithromycin and CCCP were used as […] controls, respectively.
P. aeruginosa membrane polarization assays were conducted as described previously using strain ATCC 27853. […] DiOC2 (3) fluorescence was recorded in a microplate reader using 450 nm excitation and 670 nm emission (for red fluorescence). Background correction for each concentration of each compound was obtained from reading the fluorescence of compounds in the resuspension buffer without cells. After background correction, fluorescence was normalized to that of the vehicle (DMSO) only. After a 30 min incubation at 37 °C, DiOC2 (3) fluorescence was recorded using a SpectraMax iD5 spectrophotometer (Molecular Devices, San Jose, CA, USA) following excitation at 450 nm. […]

N#CC(C#N)=NNc1cccc(Cl)c1 [CCCP, Carbonyl cyanide 3-chlorophenylhydrazone]
pIC50: 7.82
